# Source: US20220370380A1, “EXERCISE-INDUCED HEMOLYSIS SUPPRESSANT AND COMPOSITION FOR SUPPRESSING/IMPROVING EXERCISE-INDUCED HEMOLYTIC ANEMIA” (AstaReal Co., Ltd., priority 2019, published 2022)
# Where two headings read alike, the source gives them in different places.
# Tests used:
# [1] = system: men's medium- and long-distance runners; assay: Confirmation test for suppression of exercise-induced hemolysis using astaxanthin; format: in vivo, human; conditions: compared with control group
# Method: A confirmation test to confirm whether or not exercise-induced hemolysis that causes exercise-induced hemolytic anemia can be suppressed by orally taking a test food containing astaxanthin by a subject was conducted as follows.
# Two types of test foods, a “capsules for astaxanthin group” containing a Haematococcus algae-derived pigment and a “capsules for control group” not containing the Haematococcus algae-derived pigment were prepared. Further, twenty-eight men's medium- and long-distance runners aged from 18 to 22 belonging to the athletic club of Tokai University as subjects were divided into two groups. Thirteen subjects were designated as the “astaxanthin group”, and fifteen subjects were designated as the “control group”. […]
# Specifically, running training in the highlands was first conducted for 4 weeks, setting the period of running training in the highlands as “acclimatization period (Weeks 0 to 4)”, then blood samples were collected from the subjects of the “astaxanthin group” and the “control group”, to measure the number of erythrocytes (red blood cells), the hemoglobin content (amount of blood pigment; hemoglobin concentration), and the serum haptoglobin concentration. […] This test was conducted by observing the rate of change in the number of erythrocytes, the rate of change in the hemoglobin content (hemoglobin concentration), and the transition of the serum haptoglobin concentration from the start date to the end date of the observation period in each of the “astaxanthin group” and the “control group” thus measured. […]
# The blood samples collected from the subjects of the “astaxanthin group” and the “control group” were treated with EDTA-2K to measure the number of erythrocytes using the sheath flow electrical resistance detection method. […] On the other hand, the collected blood samples were transferred to a tube containing EDTA-2Na and centrifuged to separate the plasma fraction, to measure the serum haptoglobin concentration using an ELISA kit for haptoglobin quantification (Quantikine Human Haptoglobin ELISA Kit (product code: DHAPGO), available from R&D Systems, Inc.). […]
# [2] = system: men's medium- and long-distance runners; assay: Confirmation test for suppression of hemolysis due to oxidative damage (urinary 8-OHdG and isoprostane production rate); format: in vivo, human
# Source text: In order to confirm whether or not hemolysis due to oxidative damage is suppressed in the “astaxanthin group” of Example 1 (whether or not oxidative damage to erythrocytes (red blood cells) is suppressed), the production rate of 8-OHdG and isoprostane contained in the urine of the subjects of the “astaxanthin group” and the “control group” was investigated during the “test period” of Weeks 0 to 8 through the “acclimatization period (Weeks 0 to 4)” and the “observation period (Weeks 4 to 8)” of Example 1. The period of the confirmation test was set to the “test period” of Weeks 0 to 8 through the “acclimatization period (Weeks 0 to 4)” and the “observation period (Weeks 4 to 8)” because there was no causal relationship of whether or not hemolysis occurred due to oxidative damage with whether running training was performed in the highlands or flatlands.
# Specifically, this test was performed as follows. Urine was collected from the subjects of the “astaxanthin group” and the “control group” at Week 0 (start date of test food intake), Week 4, and Week 8 (last day of test food intake), and the production rate of 8-OHdG and the production rate of isoprostane were measured. Thereafter, their averages were calculated, and then the transitions of the averages of the production rate of 8-OHdG and the production rate of isoprostane from Week 0 to Week 8 in each of the “astaxanthin group” and the “control group” thus calculated were observed.
# The 8-OHdG concentration in the urine collected from the subjects of the “astaxanthin group” and the “control group” was measured using a New 8-OHdG Check ELISA (ELISA kit for 8-OHdG (product code: KOG-2005/E), available from NIKKEN SEIL Co., Ltd.) by an ELISA method. The production rate of 8-OHdG per body weight and time was calculated by the formula shown below.
# Production rate of 8-OHdG (ng/kg/hr)={8-OHdG concentration in urine (ng/mL)×volume of urine collected (mL)}/{elapsed time since the last urination (h)×body weight of subject (kg)}
# The isoprostane concentration in the urine collected from the subjects of the “astaxanthin group” and the “control group” was measured using a urinary isoprostane measurement ELISA kit (8-iso-PGF2a ELISA kit (product code: ADI-900-010), available from Enzo Life Sciences) by an ELISA method. The production rate of isoprostane per body weight and time was calculated by the formula shown below.
# Production rate of isoprostane (ng/kg/hr)={isoprostane concentration in urine (ng/mL)×volume of urine collected (mL)}/{elapsed time since the last urination (h)×body weight of subject (kg)} […]
# [3] = system: men's medium- and long-distance runners; assay: Confirmation test for antioxidant capacity (serum total antioxidant capacity); format: in vivo, human; conditions: test period Week 0 to Week 8; astaxanthin group versus control group
# Method: In order to confirm the antioxidant capacity in the “astaxanthin group” of Example 1, the concentrations of water-soluble antioxidants contained in the serum of the subjects of the “astaxanthin group” and the “control group” were measured during the “test period” of Weeks 0 to 8 through the “acclimatization period (Weeks 0 to 4)” and the “observation period (Weeks 4 to 8)” of Example 1. The period of the confirmation test was set to the “test period” of Weeks 0 to 8 through the “acclimatization period (Weeks 0 to 4)” and the “observation period (Weeks 4 to 8)” because there was no causal relationship of the antioxidant capacity with whether running training was performed in the highlands or flatlands.
# Specifically, this test was performed as follows. The blood samples were collected from the subjects of the “astaxanthin group” and the “control group” at Week 0 (start date of test food intake), Week 4, and Week 8 (last day of test food intake), to measure the concentrations of water-soluble antioxidants in serum and measure the total antioxidant capacity. Thereafter, the average was calculated, and the transition of the average of the total antioxidant capacity from Week 0 to Week 8 in each of the “astaxanthin group” and the “control group” thus calculated was observed. […]
# [4] = system: ordinary people; assay: Changes in number of erythrocytes and hemoglobin content of ordinary people (FIG. 3); format: in vivo, human; conditions: between before and after taking the test food
# [5] = cited from earlier work
# [6] = literature: Takahashi et al. 2004; cited from earlier work
compound,measurement,setting,value
"CC1=C(/C=C/C(C)=C/C=C/C(C)=C/C=C/C=C(C)/C=C/C=C(C)/C=C/C2=C(C)C(=O)C(O)CC2(C)C)C(C)(C)CC(O)C1=O (stereo not drawn) [astaxanthin, 3,3′-dihydroxy-β,β-carotene-4,4′-dione]",rate of change in the number of erythrocytes during the observation period,"[1]; astaxanthin 12 mg/day oral (free form), observation period Weeks 4 to 8, running training in flatlands",high
same,serum haptoglobin concentration on the start date of the observation period,"[1]; astaxanthin 12 mg/day oral, Week 4",almost no difference
same,serum haptoglobin concentration on the end date of the observation period,"[1]; astaxanthin 12 mg/day oral, Week 8",extremely high
same,rate of change in the hemoglobin content (hemoglobin concentration) during the observation period,"[1]; astaxanthin 12 mg/day oral, observation period Weeks 4 to 8, running training in flatlands",also high
same,average of measured values of the production rate of isoprostane (urine),"[2]; Week 0, astaxanthin group compared with control group",low
same,average of measured values of the production rate of isoprostane (urine),"[2]; Week 4 and Week 8, astaxanthin group versus control group",no difference observed
same,"average production rate (urine marker), comparison between before and after taking the test food","[2]; after intake compared with before intake (Week 0), within astaxanthin group",increased after intake
same,average of measured values of the production rate of 8-OHdG (urine),"[2]; test period Week 0 to Week 8, astaxanthin group versus control group",no significant difference
same,average of measured values of the total antioxidant capacity (serum),[3],no significant difference
same,hemoglobin content (hemoglobin concentration),[4],no significant difference
same,number of erythrocytes,[4],no significant difference
same,antioxidant activity relative to vitamin E,[5],1000 times
same,antioxidant activity relative to vitamin E,[5]; listed as Astaxanthin,"about 1,000 times"
same,antioxidant activity relative to β-carotene,[5]; relative to β-carotene,about 40 times
same,mutagenicity,[6],no mutagenicity observed
